Reference: patent publication US20250042884A1, “3-ARYLOXYL-3-FIVE-MEMBERED HETEROARYL PROPYLAMINE COMPOUND AND USE THEREOF” (Shanghai Leado Pharmatech Co. Ltd., priority 2018, published 2025)

Tests used:
Sprague-Dawley rats = assay: Rat hot plate pain model (acute pain); type: in vivo
Protocol: Sprague-Dawley male, mature and unmated rats were placed at hot and cold plate (product model: PE34, US IITC) with constant 53±0.1° C. Mice with painful response such as licking claw, shaking claw or slightly jumping within 10-30 s were selected, and mice which evaded and jumped were abandoned. […] The test compound was freshly prepared on the day of administration. 0.9% NaCl physiological saline solution was prepared as solvent for later use. Appropriate amount of test compound was added into required volume of physiological saline and fully suspended, and the concentration of prepared drug was 1 mg/ml. […] After administration, the latency of heat pain was measured at 0.5 h, 1 h and 2 h after administration. In order to prevent animals from being scalded on the hot plate, the maximum incubation time was set to 30 s. Maximum possible effect (MPE) % was used to evaluate analgesic effect of each compound, i.e., MPE %=[(Post drug latency−baseline latency)/(30−baseline latency)]×100. MPE % at different time points was recorded.

C57BL/6 mice = assay: Mice formalin pain model (acute and inflammatory pain); type: in vivo; details: hydrochloride salt, blank vehicle 349.55 ± 43.09
Description: 150 C57BL/6 mice (male, 9-week aged) were randomly divided into 15 groups, (each group had 10 mice) for the analgesic activity test of 3 compounds in the mice formalin pain model respectively: the compound I-1 group (compound I-1 prepared in Example 2 whose hydrochloride salt was used in the experiment), the S-duloxetine group (its hydrochloride salt was used in the experiment) and the compound C1 group (the compound C1 prepared in Comparative Example 1, whose hydrochloride salt was used in the experiment). Before the start of experiments, the mice were allowed to adapt to the experimental environment for 72 h with free feeding and drinking water. The test drugs were administrated by intraperitoneal injection at a dosage as follows:
Compound I-1 group: blank vehicle (blank saline control), 0.1 mg/kg, 0.5 mg/kg, 1 mg/kg, 5 mg/kg and 10 mg/kg;
S-duloxetine group: blank vehicle (blank saline control), 1 mg/kg, 5 mg/kg, 10 mg/kg and 20 mg/kg;
Compound C1 group: blank vehicle (blank saline control), 0.1 mg/kg, 0.5 mg/kg, 1 mg/kg, 5 mg/kg and 10 mg/kg.
After administration, the mice were placed in a transparent, ventilated plexiglass cylinder for 1 h, and then 20 μl of 4% formalin solution was injected into the left hind plantar of mice of each group by microinjector, claw pain response in mice were real-time recorded by a mini-camera. The time length of licking left claw were used as an indicator of pain response, licking time in 0-10 min (phase I) and 10-60 min (phase II) were observed and recorded, and the statistical analysis was conducted. The half effective dose (ED50) of 3 compounds were calculated: ED50 referred to the dose of the drug which decreased licking time by half as compared with the blank control group. The smaller the ED50 value was, the lower the effective analgesic dose of the compound was and the better the analgesic effect was.

TRPA1 = TRPA1 (Mus musculus (Mouse), UniProt Q8BLA8); assay: IonWorks Barracuda (IWB) automated patch clamp detection of TRPA1 inhibitory activity; type: cell-based; details: HEK293 cells stably expressing TRPA1; current induced by AITC; read-out: IC50 (μM), inhibitory activity on TRPA1 in the automated patch clamp detection test
Protocol: The inhibitory activity of some compounds in the examples of the present invention (as shown in Table 1) on transient receptor potential channel protein TRPA1 was tested in this example. The compound of formula A (WO2010075353) was used as a positive control compound: […]
Ion Works Barracuda (IWB) automated patch clamp detection was used as test method: HEK293 cells stably expressing TRPA1 were placed in DMEM medium containing 15 μg/mL Blasticidin S HCl, 200 μg/mL Hygromycin B and 10% FBS in the T175 culture flask, and cultured in 37° C., 5% CO2 incubator. When the cell density reached about 80%, the culture medium was removed, rinsed with phosphate buffered saline (PBS) without calcium and magnesium. 3 mL of Trypsin was added to digest for 2 min, 7 mL of culture medium was added to terminate the digestion. The cells were collected to 15 mL centrifuge tube and centrifuged at 800 rpm for 3 min. After the supernatant was removed, the cells were added to appropriate volume of extracellular fluid for re-suspending, and the cell density was controlled at 2-3×10^6/mL for IWB experiment. Extracellular fluid formulation (in mM): 140 NaCl, 5 KCl, 1 MgCl2, 10 HEPES, 0.5 EGTA, 10 Glucose (pH 7.4); intracellular fluid formulation (in mM): 140 CsCl, 10 HEPES, 5 EGTA, 0.1 CaCl2, 1 MgCl2 (pH 7.2). 28 mg/mL of amphotericin B was freshly prepared with DMSO on the day of experiment, and then final concentration of 0.1 mg/mL was prepared with intracellular fluid.
Population patch clamp (PPC) plate was used in IWB experiment. The entire detection process was automatically carried out by the instrument. Extracellular fluid was added into 384 wells of PPC plate, and 6 µL of the intracellular fluid was added into plenum (under the PPC plate), 6 µL of cell fluid was added for sealing test, and finally the intracellular fluid in plenum was replaced with amphotericin B-containing intracellular fluid to establish a whole-cell recording mode after perforating sealed cells. The sampling frequency for recording TPRA1 current was 10 kHz, the cells were clamped at 0 mV, the voltage stimulation command (channel protocol) was a ramp voltage from −100 mV to +100 mV for 300 ms. This voltage stimulation was applied every 10 s, mTRPA1current was induced by 300 µM AITC.
Data recording and current amplitude measurement export were carried out by IWB software (version 2.5.3, Molecular Devices Corporation, Union City, CA). No statistics was recorded for holes with sealing impedance lower than 20 MQΩ. The original current data was corrected by software for leakage reduction. TRPA1 current amplitude was measured at +100 mV. […] If IC50 value of HC030031 exceeded 3 times the average IC50 value previously obtained on each plate, it would be re-tested. The dose-effect curve of compounds and IC50 were fitted and calculated by GraphPad Prism 5.02 (GraphPad Software, San Diego, CA).
Some compounds in the examples of the present invention were detected by lonWorks Barracuda (IWB) automated patch clamp detection method for IC50 inhibitory activity.

SD rats = assay: Rat SNL model, mechanical allodynia test (nerve pain); type: in vivo; details: 1 h after administration, 100 mg/kg oral; control group 3.967 ± 0.775
Protocol: Male SPF grade SD rats, weighed 150 g-180 g, were selected. Aseptic operation during surgery was performed. The animals were anesthetized with sodium pentobarbital (50 mg/kg, intraperitoneal injection). The surgical area of animal waist was shaved and the skin was disinfected three times with iodophor and 70% ethanol. After the skin was dried, the operation was started. Surgical knife was used to make a longitudinal incision at the back of the sacrum of the animal waist to expose the left paraspinal muscles, and stretcher was used to separate muscle tissue to expose the spine. The left spinal nerves L5 and L6 were separated and ligated with a 6-0 silk thread, and the wound was sutured. After the operation, the animals were placed on electrothermal pad, and 5 mL of saline was injected subcutaneously to prevent dehydration. After the animals were fully awakened and could move around freely, the animals were put back in the cage.
After the operation, the animals were adapted in the experimental environment for 15min/day for 3 days.
The animals were weighed to calculate the dose. […] After administration, mechanical allodynia test was performed. The rat was individually placed in a plexiglass box with a grid on the bottom of the box to ensure that the rat claw could be tested. The rats were allowed to adapt the environment for 15 min before test. After the adaptation was completed, the test fiber was used to test the center of the left hind claw of the rat. The test fiber comprises 8 test strengths: 3.61 (0.4 g), 3.84 (0.6 g), 4.08 (1 g), 4.31 (2 g), 4.56 (4 g), 4.74 (6 g), 4.93 (8 g), and 5.18 (15 g). […] During the test, rapid withdrawal of animal claw was recorded as pain response. When the test fiber was removed from animal skin, the withdrawal of animal claw was also recorded as pain response. If animal moved, the pain response was not recorded, and the test was repeated. […]
Mechanical allodynia was expressed as withdrawal threshold (PWT) in rat behavioral test, which was calculated with the following formula: […]

ICR mice = assay: Mice acetic acid writhing pain model (visceral and inflammatory pain); type: in vivo; details: 10 mg/kg by gavage, 1 h before acetic acid; saline group 49 times
Protocol: Male ICR mice, 22-25 g, were fasted but allowed to drink water freely for 2 h before administration. All ICR mice were weighed and grouped randomly, each group had >10 animals. […] The drug was administrated by gavage based on the weight of mice. 1.5% acetic acid solution (0.1 ml/10 g) was injected intraperitoneally 1 h after administration, and the number of times of visceral pain in each group was observed within 30 min. When concave abdomen, stretched trunk and hind claw, and high buttocks appeared, one number point was recorded. Finally, the number of appearance of the above phenomenon was counted within 30 minutes.

TRPA1, sequence (Q8BLA8 whole entry): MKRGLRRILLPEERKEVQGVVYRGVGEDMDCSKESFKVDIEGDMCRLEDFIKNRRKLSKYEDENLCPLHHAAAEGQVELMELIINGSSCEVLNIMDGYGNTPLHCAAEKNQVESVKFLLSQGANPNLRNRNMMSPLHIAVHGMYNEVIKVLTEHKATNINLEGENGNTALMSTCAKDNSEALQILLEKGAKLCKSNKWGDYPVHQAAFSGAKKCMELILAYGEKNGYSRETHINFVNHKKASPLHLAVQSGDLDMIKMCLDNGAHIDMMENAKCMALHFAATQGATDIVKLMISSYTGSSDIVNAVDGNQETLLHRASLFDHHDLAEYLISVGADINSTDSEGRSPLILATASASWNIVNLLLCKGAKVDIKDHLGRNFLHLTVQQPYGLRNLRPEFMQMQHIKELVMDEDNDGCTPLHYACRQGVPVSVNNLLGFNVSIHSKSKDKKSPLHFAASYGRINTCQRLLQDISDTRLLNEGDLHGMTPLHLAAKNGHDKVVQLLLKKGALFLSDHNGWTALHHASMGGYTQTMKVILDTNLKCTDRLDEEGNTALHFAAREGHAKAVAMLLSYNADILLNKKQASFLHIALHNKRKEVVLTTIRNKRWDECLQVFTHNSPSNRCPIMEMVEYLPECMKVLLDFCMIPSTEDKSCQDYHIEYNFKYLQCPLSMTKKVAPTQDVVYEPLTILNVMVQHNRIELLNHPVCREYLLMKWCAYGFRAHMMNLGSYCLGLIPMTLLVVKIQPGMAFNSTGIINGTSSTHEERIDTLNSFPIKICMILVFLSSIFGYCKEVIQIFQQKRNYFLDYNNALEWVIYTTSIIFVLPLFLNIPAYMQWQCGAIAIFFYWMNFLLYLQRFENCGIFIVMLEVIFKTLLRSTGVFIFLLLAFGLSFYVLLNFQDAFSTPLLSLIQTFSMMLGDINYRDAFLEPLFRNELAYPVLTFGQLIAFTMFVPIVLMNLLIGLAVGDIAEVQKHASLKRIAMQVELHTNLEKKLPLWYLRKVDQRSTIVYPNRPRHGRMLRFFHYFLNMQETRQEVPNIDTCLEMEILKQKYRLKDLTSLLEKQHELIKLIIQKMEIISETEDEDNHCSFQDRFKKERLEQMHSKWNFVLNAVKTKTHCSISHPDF

CNCC[C@H](Oc1cccc2ccoc12)c1cccs1 [Compound C1, (S)-3-(benzofuran-7-yloxy)-N-methyl-3-(thiophen-2-yl)propyl-1-amine] showed an MPE % (Sprague-Dawley rats; 0.5 h after administration, 30 mg/kg intraperitoneal, hydrochloride salt) of 5.29 ± 1.56%, an MPE % (Sprague-Dawley rats; 1 h after administration, 30 mg/kg intraperitoneal, hydrochloride salt) of 14.20 ± 5.71% and an MPE % (Sprague-Dawley rats; 2 h after administration, 30 mg/kg intraperitoneal, hydrochloride salt) of 21.83 ± 2.45%. For the same compound, the “Licking claw time (s) in phase II (10-60 min)” value (from here on “Licking claw time (s)”) (C57BL/6 mice; 0.1 mg/kg intraperitoneal) was 339.35 ± 27.90 s, the “Licking claw time (s)” value (C57BL/6 mice; 0.5 mg/kg intraperitoneal) was 368.16 ± 44.46 s and the “Licking claw time (s)” value (C57BL/6 mice; 1 mg/kg intraperitoneal) was 171.57 ± 39.69 s. The “Licking claw time (s)” value (C57BL/6 mice; 5 mg/kg intraperitoneal) was 158.02 ± 25.18 s and the “Licking claw time (s)” value (C57BL/6 mice; 10 mg/kg intraperitoneal) was 35.68 ± 11.77 s.

Compound CNCC[C@@H](Oc1cccc2ccoc12)c1ccccc1 [Compound C2, (R)-3-(benzofuran-7-yloxy)-N-methyl-3-phenylpropyl-1-amine] has an IC50 (TRPA1) of 11 to 20 µM.

NCC[C@@H](Oc1cccc2ccoc12)c1cccs1 [Compound I-2, (R)-3-(benzofuran-7-yloxy)-3-(thiophen-2-yl)propyl-1-amine] was tested, and the IC50 (TRPA1) was 6 to 10 µM.

CN(C)CC[C@@H](Oc1cccc2ccoc12)c1cccs1 [Compound I-3, (R)-3-(benzofuran-7-yloxy)-N,N-dimethyl-3-(thiophen-2-yl)propyl-1-amine] gave an IC50 (TRPA1) of 1 to 5 µM.

CCNCC[C@@H](Oc1cccc2ccoc12)c1cccs1 [Compound I-4, (R)-3-(benzofuran-7-yloxy)-N-ethyl-3-(thiophen-2-yl)propyl-1-amine] gave an IC50 (TRPA1) of 1 to 5 µM.

With CNCC[C@@H](Oc1cccc2ccoc12)c1ccsc1 [Compound I-5, (R)-3-(benzofuran-7-yloxy)-N-methyl-3-(thiophen-3-yl)propyl-1-amine] the IC50 (TRPA1) was 1 to 5 µM.

Work on CNCC[C@@H](Oc1cccc2ccoc12)c1ccc(C)s1 [Compound I-6, (R)-3-(benzofuran-7-yloxy)-N-methyl-3-(5-methylthiophen-2-yl)propyl-1-amine] yielded an IC50 (TRPA1) of 6 to 10 µM.

For CNCC[C@@H](Oc1cccc2ccoc12)c1ccco1 [Compound I-8, (R)-3-(benzofuran-7-yloxy)-3-(furan-2-yl)-N-methylpropyl-1-amine], the IC50 (TRPA1) was 1 to 5 µM.

Compound CNCC[C@@H](Oc1cccc2c1CCC2)c1cccs1 [Compound I-9, (R)-3-((2,3-dihydro-1H-inden-4-yl)oxy)-N-methyl-3-(thienyl-2yl)propyl-1-amine] has an IC50 (TRPA1) of 6 to 10 µM.

In the case of CNCC[C@@H](Oc1cccc2occc12)c1cccs1 [Compound I-11, (R)-3-(benzofuran-4-yloxy)-N-methyl-3-(thiophen-2-yl)propyl-1-amine], the IC50 (TRPA1) is reported as 6 to 10 µM.

Compound C[C@H]1CCCN1c1ccc(-c2csc(NC(=O)Cn3cnc4c3c(=O)n(C)c(=O)n4C)n2)cc1F [Compound of formula A] has an IC50 (TRPA1) of 51 to 100 µM.

In the case of NCC1(CC(=O)O)CCCCC1 [Gabapentin, gabapentin], the MPE % (Sprague-Dawley rats; 0.5 h after administration, 100 mg/kg intraperitoneal) is reported as 6.47 ± 5.49%, the MPE % (Sprague-Dawley rats; 1 h after administration, 100 mg/kg intraperitoneal) is reported as 14.56 ± 6.18% and the MPE % (Sprague-Dawley rats; 2 h after administration, 100 mg/kg intraperitoneal) is reported as 22.66 ± 4.93%. For the same compound, the “PWT(g), claw withdrawal threshold” value (SD rats) was 6.352 ± 1.897 g.

CNCC[C@@H](Oc1cccc2ccccc12)c1cccs1 [R-duloxetine] was tested, and the IC50 (TRPA1) was 21 to 50 µM.

CN1[C@H]2C[C@H](OC(=O)[C@H](CO)c3ccccc3)C[C@@H]1[C@@H](O)C2 [anisodamine] was tested, and the “number of appearance of writhing reactions (visceral pain) within 30 min” value (ICR mice) was 27 times.

With COc1ccc2c(c1)c(CC(=O)O)c(C)n2C(=O)c1ccc(Cl)cc1 [indomethacin] the “number of appearance of writhing reactions (visceral pain) within 30 min” value (ICR mice) was 28 times.
